Source: patent US20220305137A1, “DRUG CONTAINING TARGETING LIPOSOMES” (NEXTAR CHEMPHARMA SOLUTIONS LTD., priority 2019, published 2022)

Assay: Doxorubicin brain concentration after intravenous administration, LC-MS/MS
Conditions: mice, 7.5 mg/kg intravenous
Description: A study was performed to determine doxorubicin distribution after administration, when comparing three doxorubicin-containing compositions, each administered to a group of 10 male ICR mice aged 7 weeks. Composition 1 was free doxorubicin.
Animals were administered doxorubicin in the following amount per administration, for each of the three compositions. Composition 1, was administered in HEPES solution at a dose of 7.5 mg/kg, in a volume of 100 microliter (μl) via the intravenous route. Compositions 2 and 3 were each administered at a dose of 15 mg/kg (equivalent of doxorubicin) in a volume of 300 μl via the intravenous route.
Five mice in each group were sacrificed one hour post administration, and five mice four hours post administration, and doxorubicin brain concentrations were determined using an LC-MS/MS method.

COc1cccc2c1C(=O)c1c(O)c3c(c(O)c1C2=O)C[C@@](O)(C(=O)CO)C[C@@H]3O[C@H]1C[C@H](N)[C@H](O)[C@H](C)O1 [Composition 1, doxorubicin]
doxorubicin brain concentration (60 minutes post administration): low brain concentration | doxorubicin brain concentration (240 minutes post administration): low brain concentration
